Measured values published in patent US9932339B2, “Helquats with heteroaromatic substituents, preparation thereof, and use thereof as G-quadruplex stabilizers” (USTAV ORGANICKE CHEMIE A BIOCHEMIE AV CR, V.V.I., priority 2014, dated 2018).

Columns and labels:
[1] = tested on: c-myc protein; assay: Immunodetection of protein c-myc in HGC-27 cell lysates (Western blot); type: cell-based, human; conditions: 50 μmol · l^−1, 24 hour incubation, normalized to β-actin
Procedure: Determination of changes in c-myc protein expression (transcription factor) in cell lysates prepared from tumor cell line HGC-27 after treatment with test helquats (Tab. 7) was carried out by immunodetection after separation of proteins according to their size by gel electrophoresis (SDS-PAGE) and blotting.
To determine the influence helquats on expression of c-myc protein, the cells were cultured under standard conditions and in the exponential growth phase were seeded into flasks at a density of 25,000 cells/cm^2. The next day selected helquats were added at a concentration of 50 μmol·l^−1. After 24 hour incubation, the cell pellets were obtained and, after addition of RIPA buffer with protease inhibitors (PrIC) and phosphatases (PhIC) (for composition see Tab. 8) cell lysates were prepared. 150 μl of RIPA buffer was used for 10^7 cells. Protein concentrations in the lysates were measured by BCA method. Separation of proteins in the lysates was carried out on a 12% denaturing polyacrylamide gel. The separated proteins were transferred to PVDF membrane by Western blotting.
Incubation with primary mouse monoclonal antibody against the protein c-myc (dilution 1:1000 in “SignalBoost” reagent) was carried out overnight at 4° C., and then with the primary mouse anti-β-actin (1:5000 dilution in 5% milk in TBS-T buffer) at room temperature for 2 hours. Subsequently, the secondary horse monoclonal antibody conjugated to horseradish peroxidase (diluted 1:2000 in 5% milk in TBS-T buffer) binding to mouse IgG antibody was applied. C-myc proteins and β-actin bound to the membrane were visualized using detection kit (SuperSignal® West Femto Maximum Sensitivity Substrate, Cat. No. 34095, Thermo Fisher Scientific, Inc., USA) in the chemiluminescence detection system ImageQuant LAS 4000 Mini (Cat. No. 28-9558-13, GE Healthcare Life Sciences, USA). The amount of protein was quantified by densitometry in Quantity One software. The amount of c-myc in the samples was normalized to β-actin, and subsequently related to a control sample.

[2] = tested on: G-quadruplex in promoter region of the c-myc gene (NHE III1 segment); assay: Dual luciferase analysis with plasmid pGL4.10-myc (luc2) in HGC-27 cells; type: cell-based, human; conditions: Homo sapiens; for inhibition at 50 µM: HGC-27, text summary of tab. 5 (50 μmol·l^−1), read-out: inhibition of expression of firefly luciferase as compared to control; for activity at 50 µM: helquat 50 μmol · l^−1, HGC-27, firefly normalized to Renilla, 24 hours after transfection, read-out: luciferase expression relative to control (control = 100%)
Outline: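 HGC-27 cells were co-transfected 1:1 with pGL4.10-myc (luc2), whose firefly luciferase is driven by an 860 bp c-myc regulatory region containing the G-quadruplex-forming NHE III1 segment, and pRL-TK Renilla control, using X-tremeGENE HP DNA in OptiMEM. Compounds were added two hours post-transfection; luminescence read 24 hours after transfection was Renilla-normalized and expressed relative to control.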

SMILES	c-myc protein expression relative to control (control = 100%) [1]	inhibition at 50 µM [2]	activity at 50 µM [2]
Cc1c(C)c2c(c3c1CC[n+]1ccc(/C=C/c4ccsc4)cc1-3)-c1cccc(/C=C/c3ccsc3)[n+]1CC2 (racemic) [MJB-C5-9, (rac)-8,9-dimethyl-2,13-bis((E)-2-(thiophen-3-yl)vinyl)-6,7,10,11-tetrahydrodipyrido[2,1-a:1′,2′-k][2,9]phenanthroline-5,12-diium trifluoromethanesulfonate]	30%	> 20%	75%
C(=C\c1ccc(-c2cccs2)s1)/c1cc[n+]2c(c1)-c1c(ccc3c1-c1cccc[n+]1CC3)CC2.O=S(=O)([O-])C(F)(F)F.O=S(=O)([O-])C(F)(F)F [LSA-C9-16, (E)-2-(2-([2,2′-bithiophen]-5-yl)vinyl)-6,7,10,11-tetrahydrodipyrido[2,1-a:1′,2′-k][2,9]phenanthroline-5,12-diium trifluoromethanesulfonate]	28%		
C(=C\c1cccc2c1oc1ccccc12)/c1cc[n+]2c(c1)-c1c(ccc3c1-c1cccc[n+]1CC3)CC2.O=S(=O)([O-])C(F)(F)F.O=S(=O)([O-])C(F)(F)F [LSA-C13-8, (E)-2-(2-(dibenzo[b,d]furan-4-yl)vinyl)-6,7,10,11-tetrahydrodipyrido[2,1-a:1′,2′-k][2,9]phenanthroline-5,12-diium trifluoromethanesulfonate]	15%	> 40%	58%
CCOC(=O)c1cc(/C=C/c2cc[n+]3c(c2)-c2c(c(C)c(C)c4c2-c2c5ccccc5cc[n+]2CC4)CC3)c[nH]1.O=S(=O)([O-])C(F)(F)F.O=S(=O)([O-])C(F)(F)F [MJA-C8-28, (E)-13-(2-(5-(ethoxycarbonyl)-1H-pyrrol-3-yl)vinyl)-6,7-dimethyl-4,5,8,9-tetrahydroisoquinolino[1,2-a]pyrido[1,2-k][2,9]phenanthroline-3,10-diium trifluoromethanesulfonate]	23%	> 20%	72%
CCCCCCc1ccc(/C=C/c2cc[n+]3c(c2)-c2c(c(C)c(C)c4c2-c2c5ccccc5cc[n+]2CC4)CC3)s1.O=S(=O)([O-])C(F)(F)F.O=S(=O)([O-])C(F)(F)F [MJA-C11-25, (E)-13-(2-(5-hexylthiophen-2-yl)vinyl)-6,7-dimethyl-4,5,8,9-tetrahydroisoquinolino[1,2-a]pyrido[1,2-k][2,9]phenanthroline-3,10-diium trifluoromethanesulfonate]	66%		
Cc1c(C)c2c(c3c1CC[n+]1ccc(/C=C/c4ccc(-n5c6ccccc6c6ccccc65)cc4)cc1-3)-c1c3ccccc3cc[n+]1CC2.O=S(=O)([O-])C(F)(F)F.O=S(=O)([O-])C(F)(F)F [MJA-C19-4, (E)-13-(4-(9H-carbazol-9-yl)styryl)-6,7-dimethyl-4,5,8,9-tetrahydroisoquinolino[1,2-a]pyrido[1,2-k][2,9]phenanthroline-3,10-diium trifluoromethanesulfonate]	81%		
Cc1nc[nH]c1/C=C/c1cc[n+]2c(c1)-c1c(c(C)c(C)c3c1-c1cccc(/C=C/c4[nH]cnc4C)[n+]1CC3)CC2.O=S(=O)([O-])C(F)(F)F.O=S(=O)([O-])C(F)(F)F [MJB-C5-11, 8,9-dimethyl-2,13-bis((E)-2-(4-methyl-1H-imidazol-5-yl)vinyl)-6,7,10,11-tetrahydrodipyrido[2,1-a:1′,2′-k][2,9]phenanthroline-5,12-diium trifluoromethanesulfonate]	23%		
Cc1nc[nH]c1/C=C/c1cc[n+]2c(c1)-c1c(ccc3c1-c1cc(/C=C/c4[nH]cnc4C)cc[n+]1CC3)CC2.O=S(=O)([O-])C(F)(F)F.O=S(=O)([O-])C(F)(F)F [PDA-C5-11, 2,15-bis((E)-2-(4-methyl-1H-imidazol-5-yl)vinyl)-6,7,10,11-tetrahydrodipyrido[2,1-a:1′,2′-k][2,9]phenanthroline-5,12-diium trifluoromethanesulfonate]	80%		
Cc1c(C)c2c(c3c1CC[n+]1ccc(/C=C/c4cccc5c4oc4ccccc45)cc1-3)-c1cc(/C=C/c3cccc4c3oc3ccccc34)cc[n+]1CC2.O=S(=O)([O-])C(F)(F)F.O=S(=O)([O-])C(F)(F)F [PDB-C13-8, 2,15-bis((E)-2-(dibenzo [b,d]furan-4-yl)vinyl)-8,9-dimethyl-6,7,10,11-tetrahydrodipyrido[2,1-a:1′,2′-k][2,9]phenanthroline-5,12-diium trifluoromethanesulfonate]	83%		
Cc1c(C)c2c(c3c1CC[n+]1ccc4ccccc4c1-3)-c1cccc(/C=C/c3cccc4c3oc3ccccc34)[n+]1CC2.O=S(=O)([O-])C(F)(F)F.O=S(=O)([O-])C(F)(F)F [VDJA-C13-8, (E)-11-(2-(dibenzo[b,d]furan-4-yl)vinyl)-6,7-dimethyl-4,5,8,9-tetrahydroisoquinolino[1,2-a]pyrido[1,2-k][2,9]phenanthroline-3,10-diium trifluoromethanesulfonate]	77%	> 20%	76%
